In the supplement of paper PMC4862054:

Legend:
Details in all cases: incubation time: 72 h
MDA-MB-468 [1] = assay: normalised response (% of control), CellTox Green; higher = less cell death (100 = DMSO, 0 = benzethonium chloride kill control)
Outline: (§1)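 Breast cancer cell lines (20 µl suspension) were seeded into 384-well plates holding compound at 5 concentrations in 10-fold steps over a compound-specific 10,000-fold range, then incubated 72 h. CellTox Green fluorescence (485/520 nm) was read first, then CellTiter-Glo luminescence after 10 min at room temperature. Each plate was normalised to 0.1 % DMSO (100) and a positive kill control (0). Each value is the normalised signal at a single concentration of the series.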

MDA-MB-231 [2] = assay: as above
Outline: as §1

CAL-120 [3] = assay: as above
Outline: as §1

Hs578T [4] = assay: as above
Outline: as §1

MCF-10A [5] = assay: as above
Outline: as §1

MDA-MB-453 [6] = assay: as above
Outline: as §1

BT-474 [7] = assay: as above
Outline: as §1

HCC1937 [8] = assay: as above
Outline: as §1

BT-549 [9] = assay: as above
Outline: as §1

CAL-148 [10] = assay: as above
Outline: as §1

MFM-223 [11] = assay: as above
Outline: as §1

MDA-MB-436 [12] = assay: as above
Outline: as §1

HCC1599 [13] = assay: as above
Outline: as §1

HDQ-P1 [14] = assay: as above
Outline: as §1

DU-4475 [15] = assay: as above
Outline: as §1

CAL-51 [16] = assay: as above
Outline: as §1

CAL-85-1 [17] = assay: as above
Outline: as §1

MDA-MB-468 [18] = assay: normalised response (% of control), CellTiter-Glo; higher = more viable cells (100 = DMSO, 0 = benzethonium chloride kill control)
Description: (§2)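 DSRT, 72 h incubation, CellTox Green / CellTiter-Glo readout. Signal is normalised to DMSO and benzethonium chloride controls. Value is the normalised response at the highest dose.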

MDA-MB-231 [19] = assay: as above
Description: as §2

CAL-120 [20] = assay: as above
Description: as §2

Hs578T [21] = assay: as above
Description: as §2

MCF-10A [22] = assay: as above
Description: as §2

MDA-MB-453 [23] = assay: as above
Description: as §2

BT-474 [24] = assay: as above
Description: as §2

HCC1143 [25] = assay: as above
Description: as §2

HCC1937 [26] = assay: as above
Description: as §2

BT-549 [27] = assay: as above
Description: as §2

SK-BR-3 = assay: as above
Description: as §2

CAL-148 [28] = assay: as above
Description: as §2

MFM-223 [29] = assay: as above
Description: as §2

MDA-MB-436 [30] = assay: as above
Description: as §2

HCC1599 [31] = assay: as above
Description: as §2

HDQ-P1 [32] = assay: as above
Description: as §2

DU-4475 [33] = assay: as above
Description: as §2

CAL-51 [34] = assay: as above
Description: as §2

CAL-85-1 [35] = assay: as above
Description: as §2

HCC1143 [36] = assay: normalised response (% of control), CellTox Green; higher = less cell death (100 = DMSO, 0 = benzethonium chloride kill control)
Outline: as §1

| Compound | normalised response (MDA-MB-468 [1]) | normalised response (MDA-MB-231 [2]) | normalised response (CAL-120 [3]) | normalised response (Hs578T [4]) | normalised response (MCF-10A [5]) | normalised response (MDA-MB-453 [6]) | normalised response (BT-474 [7]) | normalised response (HCC1937 [8]) | normalised response (BT-549 [9]) | normalised response (CAL-148 [10]) | normalised response (MFM-223 [11]) | normalised response (MDA-MB-436 [12]) | normalised response (HCC1599 [13]) | normalised response (HDQ-P1 [14]) | normalised response (DU-4475 [15]) | normalised response (CAL-51 [16]) | normalised response (CAL-85-1 [17]) | normalised response (MDA-MB-468 [18]) | normalised response (MDA-MB-231 [19]) | normalised response (CAL-120 [20]) | normalised response (Hs578T [21]) | normalised response (MCF-10A [22]) | normalised response (MDA-MB-453 [23]) | normalised response (BT-474 [24]) | normalised response (HCC1143 [25]) | normalised response (HCC1937 [26]) | normalised response (BT-549 [27]) | normalised response (SK-BR-3) | normalised response (CAL-148 [28]) | normalised response (MFM-223 [29]) | normalised response (MDA-MB-436 [30]) | normalised response (HCC1599 [31]) | normalised response (HDQ-P1 [32]) | normalised response (DU-4475 [33]) | normalised response (CAL-51 [34]) | normalised response (CAL-85-1 [35]) | normalised response (HCC1143 [36]) |
| --- | --- | --- | --- | --- | --- | --- | --- | --- | --- | --- | --- | --- | --- | --- | --- | --- | --- | --- | --- | --- | --- | --- | --- | --- | --- | --- | --- | --- | --- | --- | --- | --- | --- | --- | --- | --- | --- |
| CNC(=O)c1ccc(N2C(=S)N(c3ccc(C#N)c(C(F)(F)F)c3)C(=O)C23CCC3)cc1F [RD162] (10000 nM) | 89.8% | 99.8% | 101% | 110% | 111% | 96.3% | 103% | 90.6% | 84.9% | 97.4% | 50.8% | 95.4% | 97.1% | 106% | 98.4% | 109% | 91.2% | 93.3% | 85.1% | 101% | 101% | 102% | 91.8% | 89.8% | 95% | 93.8% | 96.3% | 95.3% | 105% | 89.5% | 92.6% | 106% | 92.3% | 95.5% | 95.3% | 91.5% |  |
| COc1cc2c(NC3CCN(C(C)C)CC3)nc(N3CCC(F)(F)CC3)nc2cc1OCCCN1CCCC1 [UNC0642] (10000 nM) | -31.3% | -38.7% | 19.6% | 122% | 57% | 43.1% | -7.97% | 29.2% | 104% | 44.5% | 81.9% | 44% | 87.4% | 93.1% | 95.5% | 113% | -18.1% | 3.41% | 18.8% | 60.9% | 91.6% | 40.9% | 5.97% | 33.3% | 70.4% | 56.7% | 56.3% | 29.6% | 32.4% | 32.9% | 19.1% | 94.2% | 48.9% | 76.3% | 79% | 5.34% | 76.4% |
| Cc1cc(Nc2cc(CN3CCOCC3)c3nc(C)c(Cc4ccc(Cl)cc4F)n3n2)n[nH]1 [Gandotinib] (10000 nM) | 11.5% | 67.7% | 59.9% | -107% | 58.1% | 88.8% | 80.9% | 101% | 83.8% | 69.7% | 76% | 82% | 92% | 102% | 103% | 24% | 51.3% | 28.5% | 27.9% | 27.9% | 7.38% | 41.2% | 120% | 44.5% | 51.7% | 64.2% | 14.2% | 50.8% | 96.7% | 59.8% | 49% | 75.9% | 39.4% | 72.3% | 26% | 58.8% | 100% |
| CNC(=O)c1cccc(-c2ccc3c(N4CCOC[C@@H]4C)nc(N4CCOC[C@@H]4C)nc3n2)c1 [AZD2014] (10000 nM) | 136% | 107% | 106% | 129% | 96% | 95.2% | 96.4% | 108% | 74.9% | 58.9% | 93.4% | 95% | 95% | 104% | 86.3% | 90.1% | 77.8% | 25.6% | 46.2% | 23.6% | 27.4% | 33.9% | 33% | 49.6% | 25.4% | 42.3% | 19.9% | 20% | 15.3% | 33.6% | 54.4% | 65.3% | 34.1% | 23.8% | 20.6% | 27.3% | 110% |
| Nc1cc(C(F)(F)F)c(-c2cc(N3CCOCC3)nc(N3CCOCC3)n2)cn1 [Buparlisib] (10000 nM) | 111% | 29.4% | 92.1% | 18% | 79.4% | 97.9% | 24% | 50.4% | 33.8% | 70% | 81.7% | 75.9% | 93.4% | 85.7% | 95.8% | -15.4% | 104% | 11.3% | 48% | 56.3% | 75% | 36% | 75.6% | 15.8% | 57.4% | 36.2% | 3.53% | 81.5% | 79.9% | 47.8% | 65.4% | 94.3% | 46.9% | 80.2% | 1.1% | 83.3% | 68.6% |
| CCn1c(-c2nonc2N)nc2cnc(Oc3cccc(NC(=O)c4ccc(OCCN5CCOCC5)cc4)c3)cc21 (10000 nM) | 74.3% | 52.4% | 103% | 110% | 93.4% | 108% | 98% | 78.5% | 100% | -66.5% | 93.6% | 74.1% | 97.9% | 109% | 97.6% | 43.7% | 109% | 50.7% | 64.4% | 58.5% | 49% | 62.9% | 72.2% | 66% | 76.4% | 76.6% | 41.4% | 40.9% | 69.9% | 62.1% | 73.3% | 74.6% | 75.9% | 80% | 32.8% | 87.8% | -33.8% |
| CNC(=O)c1ccc(N2C(=S)N(c3ccc(C#N)c(C(F)(F)F)c3)C(=O)C2(C)C)cc1F [Enzalutamide] (10000 nM) | 87.5% | 107% | 104% | 112% | 111% | 95.5% | 101% | 55.2% | 70.1% | 103% | 106% | 96.1% | 96.7% | 112% | 98.2% | 108% | 85% | 93.7% | 90.2% | 97.5% | 105% | 93.4% | 88.5% | 94.3% | 96.6% | 92.7% | 100% | 99% | 96.1% | 89.3% | 97.2% | 102% | 86.5% | 92.6% | 80.3% | 91.7% | 117% |
| COC(=O)c1ccc2c(c1)NC(=O)/C2=C(\Nc1ccc(N(C)C(=O)CN2CCN(C)CC2)cc1)c1ccccc1 [Nintedanib] (10000 nM) | 15.6% | -69.5% | 77.8% | 104% | 31.4% | 99.7% | -15.7% | 14.2% | 27.7% | 79.6% | 92.7% | 42.1% | 99.9% | 61.2% | 96.7% | -13% | 85.3% | 4.97% | 1.73% | 52.1% | 82.3% | 40.1% | 73.4% | 3.88% | 48% | 27.6% | 0.72% | 71% | 90.8% | 50.6% | 17.1% | 84% | 40.1% | 84.8% | 2.78% | 87.7% | 87.2% |
| S=P(N1CC1)(N1CC1)N1CC1 [Thio-TEPA] (50000 nM) | 119% | 113% | 99% |  | 97.2% | 103% | 101% | 73.4% | 93.5% | 89.4% | 77.7% | 103% | 97.7% | 97.6% | 97.7% | 48.1% | 93.8% | 96.9% | 94.8% | 97.2% | 103% | 104% | 111% | 91.7% | 95.6% | 93% | 77.2% | 101% | 98.1% | 101% | 104% | 111% | 99.7% | 100% | 63.8% | 93.7% |  |
